Reference: PMC3352175, “Non-coding nucleotides and amino acids near the active site regulate peptide deformylase expression and inhibitor susceptibility in Chlamydia trachomatis” (Microbiology, 2011)

Target: T1, chlamydial PDF (cPDF), peptide deformylase
T1 construct: gene def; C-terminal His6 tag (pET21), expressed in ArcticExpress E. coli, purified on TALON resin
Test: TNBSA end-point deformylation assay (A335), Lineweaver-Burk
Assay type: biochemical, Chlamydia trachomatis
Conditions: fMAS substrate; 50 mM HEPES pH 7.2, 10 mM NaCl, 37 °C, 10 min; mode not stated; read-out: Wild-type
Source text: TNBSA end-point deformylation assay (A335), Lineweaver-Burk on chlamydial PDF (cPDF), peptide deformylase

CNC(=O)[C@H](Cc1c[nH]c2ccccc12)NC(=O)[C@@H](CC(=O)NO)CC(C)C [GM6001, N-[(2R)-2-(hydroxamidocarbonylmethyl)-4-methylpentanoyl]-L-tryptophan methylamide]
Ki: 160 ± 35 nM
